Assay results: paper PMC5412877, “Discovery of a PCAF Bromodomain Chemical Probe” (Angewandte Chemie (International Ed. in English), 2016)
Like-named read-outs stand apart in the source and are kept apart here.

What was measured:
PCAF Brd [1] = target: T1, PCAF Brd (Homo sapiens, UniProt Q92831); assay: Isothermal titration calorimetry (ITC), PCAF Brd; assay type: binding
T1 construct: Human bromodomains were cloned, expressed and purified as previously described; made in house
T1 sequence (Q92831 723-827 limits assumed): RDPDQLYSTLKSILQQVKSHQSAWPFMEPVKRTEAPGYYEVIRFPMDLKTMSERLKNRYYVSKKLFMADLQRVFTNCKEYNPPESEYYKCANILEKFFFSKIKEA
Description: Isothermal Titration Calorimetry (ITC)
Experiments were carried out on a Nano-ITC Standard Volume Instrument (TA Instruments). All experiments were carried out at 25 °C in 20 mM HEPES pH 7.5, 150 mM NaCl, 0.5 mM TCEP and 5% glycerol. Protein solutions were buffer exchanged by gel filtration. The titrations were conducted using an initial injection of 2 μL followed by 32 injections of 8 μL. Background dilution heat was substracted from each experiment. Thermodynamic parameters were calculated using ΔG = ΔH-T ΔS = -RTlnKB , where KD = 1/KB. ΔG, ΔH and ΔS are changes in free energy, enathalpy and entropy resepectively. Independent single site binding models were employed in data analysis.
Supplemental Figure 3. ITC trace of D-Moses and PCAF Brd […]

[2] = Metabolic stability in mouse liver microsomes; assay type: in vitro ADME; conditions: for microsomal CLint: mouse liver microsomes, n 5, read-out: CLint (μL/min/mg protein) mouse
Description: (§1) In vitro Metabolism Studies
(§2) Metabolic stability studies were carried out exposing nominated compounds to samples of liver microsomes. Compounds were analysed by LC-MS for loss of compound at 0, 5, 15, 30 and 45 minute time points. The rate of metabolic degradation of compounds was used to calculate CLint, SE CLint, t1/2 (summarised in supplemental table 2.)
(§3) Supplemental Table 4. In vitro metabolic stability of compounds DL-45/DL-Moses and 39 Compound Metbolic Stability (Human) Metbolic Stability (Mouse) […]

[3] = Metabolic stability in human liver microsomes; assay type: in vitro ADME; conditions: for microsomal CLint: human liver microsomes, n 5, read-out: CLint (μL/min/mg protein) human
Description: as §1, §2, §3

PCAF Brd [4] = target: T1, PCAF Brd; assay: Differential scanning fluorimetry (DSF), PCAF Brd; assay type: binding; conditions: for ΔT m [°C] PCAF (DSF): compound concentration 10 μM
Description: (§4) Protein Expression and Purification
(§5) Human bromodomains were cloned, expressed and purified as previously described.[1]
(§6) Differential Scanning Fluorimetry (DSF)
(§7) Thermal melting points were recorded using an Mx3005p Real Time PCR Machine (Stratagene).
(§8) Subject proteins were buffered in 10 mM HEPES at pH 7.5, 500 mM NaCl and assayed in a 96-well […]
(§9) plate at a final concentration of 2 μM in 20 μL volume. Compounds were then added to a final […]
(§10) concentration of 10 μM. SPYRO Orange (Molecular Probes) was used as a fluorescent probe at a […]
(§11) dilution of 1:1000. Excitation and emission filters for the SPYRO-Orange dye were set to 465 nm and […]
(§12) 590 nm, respectively. The temperature was raised with a step of 3 °C/min from 25 °C to 96 °C and […]
(§13) fluorescence readings were taken at each interval. Data was analysed as previously described.[2]
(§14) Bromodomain affinity selectivity panel of (S)-11
(§15) Supplemental Figure 1. DSF Selectivity panel of (S)-11 against 48 human Bromodomains. […]
(§16) ┼Mean ΔTm ± SEM (number of measurements= 2). Compound concentration: 10 μM […]
(§17) (1 picture or pasted object on this page, not shown here)

GCN5L2 = target: T2, GCN5L2 (Homo sapiens, UniProt Q92830); assay: Differential scanning fluorimetry (DSF), GCN5 (GCN5L2) Brd; assay type: binding; conditions: compound 10 μM
T2 construct: made in house
T2 sequence (Q92830 728-832 limits assumed): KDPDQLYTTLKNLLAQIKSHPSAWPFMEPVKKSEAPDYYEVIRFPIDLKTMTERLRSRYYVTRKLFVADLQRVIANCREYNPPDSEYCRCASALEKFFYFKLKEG
Description: as §4, §5, §6, §7, §8, §9, §10, §11, §12, §13, §14, §15, §16, §17

Kinetic solubility = assay type: physicochemical; conditions: kinetic from dmso stock
MDCK‐MDR1 cells = assay: Permeability in MDCK-MDR1 cells; assay type: in vitro ADME
48 human Brds = assay: DSF selectivity panel of 48 human bromodomains; assay type: binding; conditions: compound 10 μM
HIV‐1 = conditions: cited from earlier work
PCAF Brd [5] = conditions: cited from earlier work
PCAF = tested on: PCAF; parameters: method as in earlier work; conditions: read-out: PCAF AlphaLISA IC50; cited from earlier work
[6] = Table 2, read-out: K D (nM) (ITC) PCAF Brd
[7] = read-out: GCN5L2 ΔTm (°C) (DSF)

Cc1nnc2c3ccccc3c(N[C@@H](C)[C@H](c3ccc(F)cc3)N(C)C)nn12 (relative stereo) [Compound 39]
Kd (PCAF Brd [1]; [6]): 195 ± 23 nM
microsomal CLint [2]: 21 µL/min/mg
half-life ([2]; mouse, liver microsomes, read-out: t1/2 mouse liver microsomes): 65 min
microsomal CLint [3]: 29 µL/min/mg
half-life ([3]; human, liver microsomes, read-out: t1/2 human liver microsomes): 48 min
ΔT m [°C] PCAF (DSF) (PCAF Brd [4]): 8.3 °C
ΔTm at 10 µM (GCN5L2; [7]): 4.4 °C

Cc1nnc2c3ccccc3c(N[C@@H](C)[C@H](c3ccccc3)N(C)C)nn12 (relative stereo) [Compound 45]
Kd (PCAF Brd [1]; [6]): 168 ± 27 nM
microsomal CLint [2]: 37 µL/min/mg
solubility kinetic (Kinetic solubility): > 200 µM
microsomal CLint [3]: 35 µL/min/mg
ΔT m [°C] PCAF (DSF) (PCAF Brd [4]): 7.9 °C
efflux in MDCK‐MDR1 cells (MDCK‐MDR1 cells): low efflux
permeability in MDCK‐MDR1 cells (MDCK‐MDR1 cells): good
ΔTm at 10 µM (GCN5L2; [7]): 5 °C

Cc1nnc2c3ccccc3c(N[C@@H](C)CN(C)C)nn12 [(S)‐11]
Kd (PCAF Brd [1]; Supplemental Table 3, compound concentration 30 μM, protein concentration 280-320 μM, read-out: PCAF KD (μM) (ITC)): 284 nM
Kd (PCAF Brd [1]; Table 1, read-out: K D [μM] (ITC) PCAF Brd): 280 ± 29 nM
ΔTm at 10 µM (PCAF Brd [4]; Supplemental Table 1, number of measurements 2, compound 10 μM, read-out: PCAF ΔTm (°C), mean ± SEM): 5.4 °C
ΔT m [°C] PCAF (DSF) (PCAF Brd [4]): 7.4 °C
selectivity in DSF panel of 48 human Brds (48 human Brds): no observable activity against other Brds
ΔTm at 10 µM (GCN5L2; Supplemental Table 1, number of measurements 2, read-out: GCN5L2 ΔTm (°C), mean ± SEM): 3.7 °C
ΔTm at 10 µM (GCN5L2; [7]): 4 °C

Cc1ccc(NCCCN)c([N+](=O)[O-])c1 [Compound 1]
EC50 (HIV‐1; ref 8c, read-out: HIV-1 EC50 (disrupting HIV‐1 replication)): 2800 nM

NCCCNCc1ccc(NCCCN)[n+]([O-])c1 [Compound 2]
EC50 (HIV‐1; read-out: HIV-1 EC50): 11500 nM
IC50 (PCAF Brd [5]): 930 nM

CC(C)C[C@H]1C[C@@H](Nc2cnn(C)c(=O)c2Cl)CN(C)C1 [Compound 3]
IC50 (PCAF): 13 nM
